These compounds were tested against human capsaicin receptor (VR1) (Homo sapiens, UniProt Q8NER1) (assay: Capsaicin receptor binding assay ([3H]RTX competition, VR1-transfected HEK293 membranes)).
human capsaicin receptor (VR1), sequence (Q8NER1 whole entry): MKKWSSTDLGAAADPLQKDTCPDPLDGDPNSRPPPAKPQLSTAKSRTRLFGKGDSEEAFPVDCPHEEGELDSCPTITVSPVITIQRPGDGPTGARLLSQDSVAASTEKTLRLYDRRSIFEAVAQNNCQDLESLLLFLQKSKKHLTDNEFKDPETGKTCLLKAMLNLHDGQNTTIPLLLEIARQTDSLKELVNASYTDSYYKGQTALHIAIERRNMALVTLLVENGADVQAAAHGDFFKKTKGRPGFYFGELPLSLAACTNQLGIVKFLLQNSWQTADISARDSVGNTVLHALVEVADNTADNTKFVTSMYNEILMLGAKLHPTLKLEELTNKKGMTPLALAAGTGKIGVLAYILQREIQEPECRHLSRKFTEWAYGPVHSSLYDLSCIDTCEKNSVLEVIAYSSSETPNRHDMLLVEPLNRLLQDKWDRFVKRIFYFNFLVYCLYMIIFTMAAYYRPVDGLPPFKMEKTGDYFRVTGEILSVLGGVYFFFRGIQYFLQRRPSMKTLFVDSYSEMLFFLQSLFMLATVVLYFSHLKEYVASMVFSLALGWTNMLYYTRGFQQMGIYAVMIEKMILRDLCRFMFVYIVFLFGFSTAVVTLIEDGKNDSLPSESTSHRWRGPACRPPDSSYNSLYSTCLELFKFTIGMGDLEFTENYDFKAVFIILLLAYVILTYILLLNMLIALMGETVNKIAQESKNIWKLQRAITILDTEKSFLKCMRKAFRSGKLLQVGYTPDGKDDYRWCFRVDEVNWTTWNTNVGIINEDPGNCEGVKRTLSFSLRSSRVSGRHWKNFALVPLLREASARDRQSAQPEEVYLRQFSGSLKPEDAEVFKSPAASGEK

| Structure (SMILES) | Ki [µM] |
| --- | --- |
| CC(C)COCc1nc(Nc2ccc(F)cc2)c2ccc(-c3ncccc3Cl)nc2n1 [Compound 259, [7-(3-Chloro-pyridin-2-yl)-2-isobutoxymethyl-pyrido[2,3-d]pyrimidin-4-yl]-(4-fluoro-phenyl)-amine] | < 1 |
| CC(C)COCc1nc(Nc2ccc(Cl)cc2)c2ccc(-c3ncccc3Cl)nc2n1 [Compound 260, (4-Chloro-phenyl)-[7-(3-chloro-pyridin-2-yl)-2-isobutoxymethyl-pyrido[2,3-d]pyrimidin-4-yl]-amine] | < 1 |
| CC(C)COCc1nc(Nc2ccc(C#N)cc2)c2ccc(-c3ncccc3Cl)nc2n1 [Compound 261, 4-[7-(3-Chloro-pyridin-2-yl)-2-isobutoxymethyl-pyrido[2,3-d]pyrimidin-4-ylamino]-benzonitrile] | < 1 |
| CC(=O)c1ccc(Nc2nc(COCC(C)C)nc3nc(-c4ncccc4Cl)ccc23)cc1 [Compound 262, 1-{4-[7-(3-Chloro-pyridin-2-yl)-2-isobutoxymethyl-pyrido(2,3-d]pyrimidin-4-ylamino]-phenyl}-ethanone] | < 1 |
| CC(C)COCc1nc(Nc2ccc(N3CCOCC3)cc2)c2ccc(-c3ncccc3Cl)nc2n1 [Compound 263, [7-(3-Chloro-pyridin-2-yl)-2-isobutoxymethyl-pyrido[2,3-d]pyrimidin-4-yl]-(4-morpholin-4-yl-phenyl)-amine] | < 1 |
| CCOc1ccc(Nc2nc(COCC(C)C)nc3nc(-c4ncccc4Cl)ccc23)cc1 [Compound 264, [7-(3-Chloro-pyridin-2-yl)-2-isobutoxymethyl-pyrido[2,3-d]pyrimidin-4-yl]-(4-ethoxy-phenyl)-amine] | < 1 |
| CCc1ccc(Nc2nc(COCC(C)C)nc3nc(-c4ncccc4Cl)ccc23)cc1 [Compound 265, [7-(3-Chloro-pyridin-2-yl)-2-isobutoxymethyl-pyrido[2,3-d]pyrimidin-4-yl]-(4-ethyl-phenyl)-amine] | < 1 |
| CCCc1ccc(Nc2nc(COCC(C)C)nc3nc(-c4ncccc4Cl)ccc23)cc1 [Compound 266, [7-(3-Chloro-pyridin-2-yl)-2-isobutoxymethyl-pyrido[2,3-d]pyrimidin-4-yl]-(4-propyl-phenyl)-amine] | < 1 |
| COC(=O)c1ccc(Nc2nc(COCC(C)C)nc3nc(-c4ncccc4Cl)ccc23)cc1 [Compound 267, 4-[7-(3-Chloro-pyridin-2-yl)-2-isobutoxymethyl-pyrido[2,3-d]pyrimidin-4-ylamino]-benzoic acid methyl ester] | < 1 |
| CC(C)COCc1nc(Nc2ccc(F)c(F)c2)c2ccc(-c3ncccc3Cl)nc2n1 [Compound 268, [7-(3-Chloro-pyridin-2-yl)-2-isobutoxymethyl-pyrido[2,3-d]pyrimidin-4-yl]-(3,4-difluoro-phenyl)-amine] | < 1 |
| Cc1cc(Nc2nc(COCC(C)C)nc3nc(-c4ncccc4Cl)ccc23)ccc1F [Compound 269, [7-(3-Chloro-pyridin-2-yl)-2-isobutoxymethyl-pyrido[2,3-d]pyrimidin-4-yl]-(4-fluoro-3-methyl-phenyl)-amine] | < 1 |
| CC(C)COCc1nc(Nc2cccc(C(F)(F)F)c2)c2ccc(-c3ncccc3C(F)(F)F)nc2n1 [Compound 270, [2-Isobutoxymethyl-7-(3-trifluoromethyl-pyridin-2-yl)-pyrido[2,3-d]pyrimidin-4-yl]-(3-trifluoromethyl-phenyl)-amine] | < 1 |
| CC(C)COCc1nc(Nc2cccc(Cl)c2)c2ccc(-c3ncccc3C(F)(F)F)nc2n1 [Compound 271, (3-Chloro-phenyl)-[2-isobutoxymethyl-7-(3-trifluoromethyl-pyridin-2-yl)-pyrido[2,3-d]pyrimidin-4-yl]-amine] | < 1 |
| CC(C)COCc1nc(Nc2ccc(C#N)cc2)c2ccc(-c3ncccc3C(F)(F)F)nc2n1 [Compound 272, 4-[2-Isobutoxymethyl-7-(3-trifluoromethyl-pyridin-2-yl)-pyrido[2,3-d]pyrimidin-4-ylamino]-benzonitrile] | < 1 |
| CC(C)COCc1nc(Nc2ccc(Cl)c(F)c2)c2ccc(-c3ncccc3C(F)(F)F)nc2n1 [Compound 273, (4-Chloro-3-fluoro-phenyl)-[2-isobutoxymethyl-7-(3-trifluoromethyl-pyridin-2-yl)-pyrido[2,3-d]pyrimidin-4-yl]-amine] | < 1 |
| Cc1cc(Nc2nc(COCC(C)C)nc3nc(-c4ncccc4C(F)(F)F)ccc23)ccc1Cl [Compound 274, (4-Chloro-3-methyl-phenyl)-[2-isobutoxymethyl-7-(3-trifluoromethyl-pyridin-2-yl)-pyrido[2,3-d]pyrimidin-4-yl]-amine] | < 1 |
| CC(C)COCc1nc(Nc2ccc(F)c(Cl)c2)c2ccc(-c3ncccc3C(F)(F)F)nc2n1 [Compound 275, (3-Chloro-4-fluoro-phenyl)-[2-isobutoxymethyl-7-(3-trifluoromethyl-pyridin-2-yl)-pyrido[2,3-d]pyrimidin-4-yl]-amine] | < 1 |
| Cc1ccc(Nc2nc(COCC(C)C)nc3nc(-c4ncccc4C(F)(F)F)ccc23)cc1C(F)(F)F [Compound 276, [2-Isobutoxymethyl-7-(3-trifluoromethyl-pyridin-2-yl)-pyrido[2,3-d]pyrimidin-4-yl]-(4-methyl-3-trifluoromethyl-phenyl)-amine] | < 1 |

| Structure (SMILES) | Ki [µM] |
| --- | --- |
| CC(C)COCc1nc(Nc2ccc(CO)cc2)c2ccc(-c3ncccc3Cl)nc2n1 [Compound 277, {4-[7-(3-Chloro-pyridin-2-yl)-2-isobutoxymethyl-pyrido[2,3-d]pyrimidin-4-ylamino]-phenyl}-methanol] | < 1 |
| CCCCOc1ccc(Nc2nc(COCC(C)C)nc3nc(-c4ncccc4Cl)ccc23)cc1 [Compound 278, (4-Butoxy-phenyl)-[7-(3-chloro-pyridin-2-yl)-2-isobutoxymethyl-pyrido[2,3-d]pyrimidin-4-yl]-amine] | < 1 |
| CC(C)OCc1nc(Nc2ccc(S(N)(=O)=O)cc2)c2ccc(-c3ncccc3Cl)nc2n1 [Compound 279, 4-{7-(3-Chloro-pyridin-2-yl)-2-isopropoxymethyl-pyrido[2,3-d]pyrimidin-4-ylamino]-benzenesulfonamide] | < 1 |
| CCCC(=O)c1ccc(Nc2nc(COCC(C)C)nc3nc(-c4ncccc4Cl)ccc23)cc1 [Compound 280, 1-{4-[7-(3-Chloro-pyridin-2-yl)-2-isobutoxymethyl-pyrido[2,3-d]pyrimidin-4-ylamino]-phenyl}-butan-1-one] | < 1 |
| CCOC(=O)Cc1ccc(Nc2nc(COCC(C)C)nc3nc(-c4ncccc4Cl)ccc23)cc1 [Compound 283, {4-[7-(3-Chloro-pyridin-2-yl)-2-isobutoxymethyl-pyrido[2,3-d]pyrimidin-4-ylamino]-phenyl}-acetic acid ethyl ester] | < 1 |
| CC(C)COCc1nc(Nc2ccc(CC(=O)O)cc2)c2ccc(-c3ncccc3Cl)nc2n1 [Compound 284, {4-[7-(3-Chloro-pyridin-2-yl)-2-isobutoxymethyl-pyrido[2,3-d]pyrimidin-4-ylamino]-phenyl}-acetic acid] | < 1 |
| COc1cc(Nc2nc(COCC(C)C)nc3nc(-c4ncccc4Cl)ccc23)ccc1F [Compound 285, [7-(3-Chloro-pyridin-2-yl)-2-isobutoxymethyl-pyrido[2,3-d]pyrimidin-4-yl]-(4-fluoro-3-methoxy-phenyl)-amine] | < 1 |
| OCc1cc2nc(-c3ncccc3C(F)(F)F)ccc2c(Nc2ccc(C(F)(F)F)cc2)n1 [Compound 286, [5-(4-Trifluoromethyl-phenylamino)-2-(3-trifluoromethyl-pyridin-2-yl)-[1,6]naphthyridin-7-yl]-methanol] | < 1 |
| COCc1nc(Nc2ccc(Cl)cc2)c2ccc(-c3ncccc3C(F)(F)F)nc2n1 [Compound 287, (4-Chloro-phenyl)-[2-methoxymethyl-7-(3-trifluoromethyl-pyridin-2-yl)-pyrido[2,3-d]pyrimidin-4-yl]-amine] | < 1 |
| COCc1nc(Nc2ccc(C#N)cc2)c2ccc(-c3ncccc3C(F)(F)F)nc2n1 [Compound 288, 4-[2-Methoxymethyl-7-(3-trifluoromethyl-pyridin-2-yl)-pyrido[2,3-d]pyrimidin-4-ylamino]-benzonitrile] | < 1 |
| COCc1nc(Nc2ccc(C(C)=O)cc2)c2ccc(-c3ncccc3C(F)(F)F)nc2n1 [Compound 289, 1-{4-[2-Methoxymethyl-7-(3-trifluoromethyl-pyridin-2-yl)-pyrido[2,3-d]pyrimidin-4-ylamino]-phenyl}-ethanone] | < 1 |
| COCc1nc(Nc2ccc(C(C)(C)C#N)cc2)c2ccc(-c3ncccc3C(F)(F)F)nc2n1 [Compound 290, 2-{4-[2-Methoxymethyl-7-(3-trifluoromethyl-pyridin-2-yl)-pyrido[2,3-d]pyrimidin-4-ylamino]-phenyl}-2-methyl-propionitrile] | < 1 |
| COCc1nc(Nc2ccc(F)c(F)c2)c2ccc(-c3ncccc3C(F)(F)F)nc2n1 [Compound 291, (3,4-Difluoro-phenyl)-[2-methoxymethyl-7-(3-trifluoromethyl-pyridin-2-yl)-pyrido[2,3-d]pyrimidin-4-yl]-amine] | < 1 |
| COCc1nc(Nc2ccc(Cl)c(F)c2)c2ccc(-c3ncccc3C(F)(F)F)nc2n1 [Compound 292, (4-Chloro-3-fluoro-phenyl)-[2-methoxymethyl-7-(3-trifluoromethyl-pyridin-2-yl)-pyrido[2,3-d]pyrimidin-4-yl]-amine] | < 1 |
| COCc1nc(Nc2ccc(Cl)c(C)c2)c2ccc(-c3ncccc3C(F)(F)F)nc2n1 [Compound 293, (4-Chloro-3-methyl-phenyl)-[2-methoxymethyl-7-(3-trifluoromethyl-pyridin-2-yl)-pyrido[2,3-d]pyrimidin-4-yl]-amine] | < 1 |
| COCc1nc(Nc2ccc(Cl)c(C(F)(F)F)c2)c2ccc(-c3ncccc3C(F)(F)F)nc2n1 [Compound 294] | < 1 |
| COCc1cc2nc(-c3ncccc3C(F)(F)F)ccc2c(Nc2ccc(C(F)(F)F)cc2)n1 [Compound 295, [7-Methoxymethyl-2-(3-trifluoromethyl-pyridin-2-yl)-[1,6]naphthyridin-5-yl]-(4-trifluoromethyl-phenyl)-amine] | < 1 |

Reference: US20040156869A1, “2-substituted quinazolin-4-ylamine analogues” (Neurogen Corporation, priority 2002, published 2004)
